Measured values published in patent publication US4442115A, “2'Hydroxy tetrazole-5-carboxanilides and anti-allergic use thereof” (May & Baker Limited, priority 1977, dated 1984).

Assays:
Format in all cases: in vivo
[1] = system: passive cutaneous anaphylactic (PCA) reaction; test: suppression of passive cutaneous anaphylactic (PCA) reaction, intravenous administration; conditions: Rattus norvegicus, rats, i.v., just before injection of allergen, read-out: ED 100 (i.v.): intravenous dose which produces 100% inhibition of the PCA reaction
Excerpt: (§1) In pharmacological tests the new compounds suppress the passive cutaneous anaphylactic (PCA) reaction resulting from combination of tissue-fixed reaginic antibodies with the appropriate antigenic material (termed reagin-allergen combination) and carried out in an essentially similar manner to that described by Ogilvie [Nature (Lond.), (1964), 204, 91-92; Immunology, (1967), 12, 112-131]. In the method used to test these compounds sera were obtained from rats which had been infected with larvae of the nematode parasite Nippostrongylus brasiliensis; as a result of the parasitic infestation reaginic antibodies are elaborated in the host mammal and are found in sera removed from such animals. Other, non-infected, rats received intradermal injections of appropriate dilutions of such sera and were then given the allergenic material along with Evans' blue dye intravenously forty-eight hours later.
(§2) The allergenic material consisted of supernatant fluid after centrifugation of homogenates of adult Nippostrongylus brasiliensis worms which had been macerated in Tyrode's solution. The sites of PCA reactions were visualised by the effusion of Evans' blue dye from the circulation into those areas as a result of increased capillary permeability caused by the release of biologically-active substances from cells where reagin-allergen combination had occurred. The new compounds when given intravenously to the rats just before injection of allergen, or administered orally thirty minutes before intravenous injection of allergen, were able to prevent the development of the PCA reaction, as shown below in Table I and Table II.

[2] = system: passive cutaneous anaphylactic (PCA) reaction; test: suppression of passive cutaneous anaphylactic (PCA) reaction, oral administration; conditions: Rattus norvegicus, rats, p.o., thirty minutes before intravenous injection of allergen, read-out: ED 50 (p.o.): oral dose which produces 50% inhibition of the PCA reaction
Excerpt: as §1, §2

oral toxicity in mice = conditions: 1000 mg/kg animal body weight, observation period of 3 days

SMILES | ED100 [1] | ED50 [2] | deaths during observation period (oral toxicity in mice)
CCC(=O)c1cc(CC)cc(NC(=O)c2nnn[nH]2)c1O [AA, 5'-ethyl-2'-hydroxy-3'-propionyltetrazole-5-carboxanilide] | 0.01 mg/kg | 1.3 mg/kg | –
CCC(=O)c1cc(C)cc(NC(=O)c2nnn[nH]2)c1O [BB, 2'-hydroxy-5'-methyl-3'-propionyltetrazole-5-carboxanilide] | 0.02 mg/kg | 0.88 mg/kg | –
COc1cc(Br)cc(NC(=O)c2nnn[nH]2)c1O [CC, 5'-bromo-2'-hydroxy-3'-methoxytetrazole-5-carboxanilide] | 0.05 mg/kg | 16 mg/kg | –
O=C(Nc1ccccc1O)c1nnn[nH]1 [Compound A, 2'-hydroxytetrazole-5-carboxanilide] | 0.2 mg/kg | 5.5 mg/kg | –
CC(=O)c1cc(C)cc(NC(=O)c2nnn[nH]2)c1O [Compound B, 3'-acetyl-2'-hydroxy-5'-methyltetrazole-5-carboxanilide] | 0.01 mg/kg | 0.06 mg/kg | no deaths occurred
CCc1cccc(NC(=O)c2nnn[nH]2)c1O [Compound C, 3'-ethyl-2'-hydroxytetrazole-5-carboxanilide] | 0.1 mg/kg | 0.7 mg/kg | –
CCc1cc(NC(=O)c2nnn[nH]2)c(O)c(C(C)=O)c1 [Compound D, 3'-acetyl-5'-ethyl-2'-hydroxytetrazole-5-carboxanilide] | 0.01 mg/kg | 0.19 mg/kg | –
CC(=NO)c1cc(C)cc(NC(=O)c2nn[nH]n2)c1O [Compound DD, 2'-hydroxy-3'-(1-hydroxyimino)ethyl-5'-methyltetrazole-5-carboxanilide] | 0.002 mg/kg | – | –
CC(=O)c1cc([N+](=O)[O-])cc(NC(=O)c2nnn[nH]2)c1O [E, 3'-acetyl-2'-hydroxy-5'-nitrotetrazole-5-carboxanilide] | 0.02 mg/kg | 0.04 mg/kg | –
CON=C(C)c1cc(C)cc(NC(=O)c2nn[nH]n2)c1O [EE, 2'-hydroxy-3'-(1-methoxyimino)ethyl-5'-methyltetrazole-5-carboxanilide] | 0.02 mg/kg | – | –
Cc1cc(NC(=O)c2nnn[nH]2)c(O)c(C(=O)C(C)C)c1 [G, 2'-hydroxy-3'-isobutyryl-5'-methyltetrazole-5-carboxanilide] | 0.02 mg/kg | 3.2 mg/kg | –
CC(=O)c1cc(C#N)cc(NC(=O)c2nnn[nH]2)c1O [H, 3'-acetyl-5'-cyano-2'-hydroxytetrazole-5-carboxanilide] | 0.01 mg/kg | 0.4 mg/kg | –
Cc1cc(NC(=O)c2nnn[nH]2)c(O)c(C(=O)C2CC2)c1 [I, 3'-cyclopropylcarbonyl-2'-hydroxy-5'-methyltetrazole-5-carboxanilide] | 0.02 mg/kg | – | no deaths occurred
CC(=O)c1cc(F)cc(NC(=O)c2nnn[nH]2)c1O [K, 3'-acetyl-5'-fluoro-2'-hydroxytetrazole-5-carboxanilide] | 0.01 mg/kg | – | –
CC(=O)c1cc(Br)cc(NC(=O)c2nnn[nH]2)c1O [L, 3'-acetyl-5'-bromo-2'-hydroxytetrazole-5-carboxanilide] | 0.05 mg/kg | – | –
COc1cc(NC(=O)c2nnn[nH]2)c(O)c(C(C)=O)c1 [M, 3'-acetyl-2'-hydroxy-5'-methoxytetrazole-5-carboxanilide] | 0.01 mg/kg | – | –
CCC(=O)c1cc(C#N)cc(NC(=O)c2nnn[nH]2)c1O [N, 5'-cyano-2'-hydroxy-3'-propionyltetrazole-5-carboxanilide] | 0.02 mg/kg | – | –
CC(=O)c1cc(N)cc(NC(=O)c2nnn[nH]2)c1O [P, 3'-acetyl-5'-amino-2'-hydroxytetrazole-5-carboxanilide] | 0.05 mg/kg | – | –
COc1cccc(NC(=O)c2nnn[nH]2)c1O [R, 2'-hydroxy-3'-methoxytetrazole-5-carboxanilide] | 0.02 mg/kg | 2.9 mg/kg | –
CCc1cc(NC(=O)c2nnn[nH]2)c(O)c(OC)c1 [S, 5'-ethyl-2'-hydroxy-3'-methoxytetrazole-5-carboxanilide] | 0.01 mg/kg | 1.8 mg/kg | –
COc1cc(C)cc(NC(=O)c2nnn[nH]2)c1O [T, 2'-hydroxy-3'-methoxy-5'-methyltetrazole-5-carboxanilide] | 0.02 mg/kg | 6.5 mg/kg | –
CCCC(=O)c1cc(C)cc(NC(=O)c2nnn[nH]2)c1O [U, 3'-butyryl-2'-hydroxy-5'-methyltetrazole-5-carboxanilide] | 0.05 mg/kg | – | –
Cc1cc(NC(=O)c2nnn[nH]2)c(O)c(C(=O)N(C)C)c1 [V, 3'-(N,N-dimethylcarbamoyl)-2'-hydroxy-5'-methyltetrazole-5-carboxanilide] | 0.2 mg/kg | – | –
COC(=O)c1cc(C)cc(NC(=O)c2nnn[nH]2)c1O [W, 2'-hydroxy-3'-methoxycarbonyl-5'-methyltetrazole-5-carboxanilide] | 0.05 mg/kg | 5.6 mg/kg | –
CCOC(=O)c1cc(C)cc(NC(=O)c2nnn[nH]2)c1O [X, 3'-ethoxycarbonyl-2'-hydroxy-5'-methyltetrazole-5-carboxanilide] | 0.01 mg/kg | 36 mg/kg | –
CCCc1cc(NC(=O)c2nnn[nH]2)c(O)c(C(C)=O)c1 [Y, 3'-acetyl-2'-hydroxy-5'-propyltetrazole-5-carboxanilide] | 0.01 mg/kg | 0.46 mg/kg | –
CC(=O)c1cccc(NC(=O)c2nnn[nH]2)c1O [Z, 3'-acetyl-2'-hydroxytetrazole-5-carboxanilide] | 0.005 mg/kg | 0.06 mg/kg | –
